Measured values taken from article PMC6270905, “Anti-Obesity Effects of Hispidin and Alpinia zerumbet Bioactives in 3T3-L1 Adipocytes” (Molecules, 2014).
Like-named read-outs stand apart in the source and are kept apart here.

Target: T1, pancreatic lipase (Sus scrofa, UniProt P00591)
T1 construct: gene PNLIP
T1 sequence (P00591 1-450): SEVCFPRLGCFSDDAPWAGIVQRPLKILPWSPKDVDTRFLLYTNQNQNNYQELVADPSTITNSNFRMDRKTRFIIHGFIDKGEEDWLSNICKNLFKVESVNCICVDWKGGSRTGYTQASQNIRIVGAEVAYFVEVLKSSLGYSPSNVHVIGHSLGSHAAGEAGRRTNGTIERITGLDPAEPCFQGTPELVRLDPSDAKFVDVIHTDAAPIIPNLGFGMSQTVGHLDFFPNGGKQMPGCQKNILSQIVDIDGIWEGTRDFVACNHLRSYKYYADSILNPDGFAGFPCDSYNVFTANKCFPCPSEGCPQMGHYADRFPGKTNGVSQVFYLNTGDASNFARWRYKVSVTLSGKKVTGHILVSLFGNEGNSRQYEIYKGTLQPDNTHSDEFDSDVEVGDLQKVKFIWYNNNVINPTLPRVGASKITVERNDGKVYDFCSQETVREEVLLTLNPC
Test: p-nitrophenyl butyrate hydrolysis by porcine pancreatic lipase (type II), absorbance at […] nm
Type: biochemical

Row | Compound | IC50 [µM] | IC50 (read-out: IC50 (converted)) [µM]
1 | COc1cc(CCc2ccccc2)oc(=O)c1 [DDK, dihydro-5,6-dehydrokawain] | 36.5 | –
2 | O=c1cc(O)cc(/C=C/c2ccc(O)c(O)c2)o1 [hispidin, 6-(3,4-dihydroxylstyryl)-4-hydroxy-2-pyrone] | – | 76.4
3 | COc1cc(/C=C/c2ccccc2)oc(=O)c1 [DK, 5,6-dehydrokawain] | – | 326
